Data from patent US4388233A, “Synthetic substrates for enzyme analysis” (priority 1981, dated 1983).
Like-named read-outs stand apart in the source and are kept apart here.

Key:
[1] = Solubility of liberated detector compounds in water; details: in water as solvent, analogous to a buffered solution
[2] = Fluorescence properties of liberated detector compounds; assay type: physicochemical; details: for Em: fluorescence emission wavelength of detector compound; for Ex: fluorescence excitation wavelength of detector compound; for Rel. Int.: relative fluorescent intensity of detector compound
Description: The presence of the liberated D compound can be qualitatively or quantitatively determined fluorometrically, or may be utilized in colorimetric assays.

[3] = water
DAP II = experiment: Enzyme kinetic study of synthetic substrates with DAP II; assay type: biochemical; details: pH 5.6, rat pituitary homogenate 13.75 μg/mL protein equivalent, liberated D compound 7-amino-3-phenylcoumarin
Description: (§1) In use for enzyme analysis, following enzyme cleavage of the bond between the C7 amino group and the A moiety, a detector group is liberated. This detector group is substantially identical to the precursor D moiety (although the amido group at C7 is converted to a primary amino group) and shall be hereinafter referred to as the liberated D compound.
(§2) The liberated D compounds from the above-described inventive synthetic substrates generally fluoresce strongly in the blue to yellow region of the spectrum once irradiated with ultraviolet light, whereas the intact synthetic substrates of the present invention fluoresce more weakly and at shorter wavelengths. The presence of the liberated D compound can be qualitatively or quantitatively determined fluorometrically, or may be utilized in colorimetric assays. Synthetic substrates in accordance with the present invention preferably fluoresce at wavelengths of at least about 460 nm. The FIG. 2 structure, for example, yields a liberated D compound which fluoresces at a wavelength of 472 nm, and the FIG. 3 structure at a wavelength of 505 nm.
The inventive synthetic substrates may be used in enzyme kinetic studies. Table I, below illustrates kinetic data of several synthetic substrates in accordance with the present invention (where the liberated D compound is 7-amino-3-phenylcoumarin) with 3 different enzymes. […]

Trypsin = experiment: Enzyme kinetic / reaction rate study of synthetic substrates with trypsin; assay type: biochemical; details: for 1/V: trypsin, pH8, 37° C., Ex = 420 nm, Em = 485 nm; for Km / Vmax: Trypsin, pH 8.0, 200 ng/mL, liberated D compound 7-amino-3-phenylcoumarin
Description: as §1, §2
(§3) The inventive synthetic substrates may be used in enzyme kinetic studies. Table I, below illustrates kinetic data of several synthetic substrates in accordance with the present invention (where the liberated D compound is 7-amino-3-phenylcoumarin) with 3 different enzymes.
(§4) Table II, below, tabulates the data from three Lineweaver-Burk plots of reaction rate studies utilizing several of the inventive synthetic substrates.

Urokinase = experiment: Enzyme kinetic / reaction rate study of synthetic substrates with urokinase; assay type: biochemical; details: for 1/V: urokinase, pH8, 37° C., Ex = 410 nm, Em = 475 nm
Description: as §1, §2, §3, §4

[4] = Urokinase, pH 8.0, 2.5 Plough units/ml, liberated D compound 7-amino-3-phenylcoumarin

With `Nc1ccc2cc(-c3ccccc3)c(=O)oc2c1` [7-amino-3-phenyl coumarin, 7-amino-3-phenylcoumarin] the Sol. [1] was 0.0012 mg/mL, the Em [2] was 472 nm and the Ex [2] was 368 nm. The “Rel. Int.” value [2] was 4.0.
`Nc1ccc2c(C(F)(F)F)cc(=O)oc2c1` [7-amino-4-trifluoro-methyl coumarin, 7-amino-4-trifluoromethylcoumarin, reference compound] gave a Sol. [3] of 0.017 mg/mL, an Em [2] of 500 nm and an Ex [2] of 390 nm. For the same compound, the “Rel. Int.” value [2] was 1.0.
Compound `Br.Br.C[C@H](NC(=O)[C@@H](N)CCCCN)C(=O)Nc1ccc2cc(-c3ccccc3)c(=O)oc2c1.O` [Example VII, 7-(L-Lysyl-L-alaninamido)-3-phenylcoumarin Dihydrobromide Monohydrate] has a Km (DAP II) of 321 µM and a Vmax (DAP II) of 0.346 nmol/min.
In the case of `N=C(N)NCCC[C@H](NC(=O)OCc1ccccc1)C(=O)Nc1ccc2cc(-c3ccccc3)c(=O)oc2c1` [Example VIII, 7-(Z-L-Arginamido)-3-phenylcoumarin], the 1/V (Trypsin; 1/S = 1.7 (mm)^-1) is reported as 1.45 (nmol/ml/min)^-1, the 1/V (Trypsin; 1/S = 3.3 (mm)^-1) is reported as 2.25 (nmol/ml/min)^-1 and the 1/V (Trypsin; 1/S = 6.7 (mm)^-1) is reported as 4.3 (nmol/ml/min)^-1. The 1/V (Trypsin; 1/S = 12.5 (mm)^-1) was 7.6 (nmol/ml/min)^-1, the 1/V (Trypsin; 1/S = 16.6 (mm)^-1) was 10.2 (nmol/ml/min)^-1 and the Km (Trypsin) was 574 µM. For the same compound, the Vmax (Trypsin) was 1.264 nmol/min.
In the case of `N=C(N)NCCC[C@H](NC(=O)CNC(=O)CNC(=O)OCc1ccccc1)C(=O)Nc1ccc2cc(-c3ccccc3)c(=O)oc2c1` [Example X, 7-(Z-Glycylglycyl-L-arginamido)-3-phenylcoumarin], the 1/V (Urokinase; 1/S = 1 (mm)^-1) is reported as 11 (nmol/ml/min)^-1, the 1/V (Urokinase; 1/S = 2 (mm)^-1) is reported as 13 (nmol/ml/min)^-1 and the 1/V (Urokinase; 1/S = 3.5 (mm)^-1) is reported as 17 (nmol/ml/min)^-1. The 1/V (Urokinase; 1/S = 5 (mm)^-1) was 22 (nmol/ml/min)^-1, the 1/V (Urokinase; 1/S = 8.25 (mm)^-1) was 36 (nmol/ml/min)^-1 and the 1/V (Urokinase; 1/S = 11 (mm)^-1) was 42 (nmol/ml/min)^-1. The 1/V (Urokinase; 1/S = 12.25 (mm)^-1) was 50 (nmol/ml/min)^-1, the 1/V (Urokinase; 1/S = 14.25 (mm)^-1) was 51 (nmol/ml/min)^-1 and the Km (Urokinase; [4]) was 411 µM. For the same compound, the Vmax (Urokinase; [4]) was 0.137 nmol/min.
With `N=C(N)NCCC[C@H](NC(=O)OCc1ccc([N+](=O)[O-])cc1)C(=O)Nc1ccc2cc(-c3ccccc3)c(=O)oc2c1` [Example XII, 7-(4-NO2 -Z-L-Arginamido)-3-phenylcoumarin] the Km (Trypsin) was 193 µM and the Vmax (Trypsin) was 0.174 nmol/min.
For `N=C(N)NCCC[C@H](NC(=O)c1ccccc1)C(=O)Nc1ccc2cc(-c3ccccc3)c(=O)oc2c1` [IX, 7-(Benzoyl-L-arginamido)-3-phenylcoumarin], the 1/V (Trypsin; 1/S = 1.1 (mm)^-1) was 4.9 (nmol/ml/min)^-1, the 1/V (Trypsin; 1/S = 1.7 (mm)^-1) was 6.0 (nmol/ml/min)^-1 and the 1/V (Trypsin; 1/S = 3.4 (mm)^-1) was 10.0 (nmol/ml/min)^-1. For the same compound, the 1/V (Trypsin; 1/S = 6.7 (mm)^-1) was 18.3 (nmol/ml/min)^-1, the 1/V (Trypsin; 1/S = 12.5 (mm)^-1) was 35.0 (nmol/ml/min)^-1 and the Km (Trypsin) was 945 µM. For the same compound, the Vmax (Trypsin) was 0.414 nmol/min.
